From PubChem BioAssay (NCI)
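Briefly, cells in 96-well plates were exposed to five compound concentrations for 48 h, and endpoints were estimated by linear interpolation. TGI denotes the concentration required for complete inhibition of growth.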

Assays:
Test in all cases: NCI-60 cell line screen, 48 h
RPMI-8226 leukemia = tested on: RPMI-8226 leukemia
CCRF-CEM leukemia = tested on: CCRF-CEM leukemia
SK-OV-3 ovarian = tested on: SK-OV-3 ovarian
SF-295 CNS = tested on: SF-295 CNS
LOX IMVI melanoma = tested on: LOX IMVI melanoma
NCI-H460 lung = tested on: NCI-H460 lung
M14 melanoma = tested on: M14 melanoma
EKVX NSCLC = tested on: EKVX NSCLC
COLO 205 colon = tested on: COLO 205 colon
KM12 colon = tested on: KM12 colon
HT29 colon = tested on: HT29 colon
UO-31 renal = tested on: UO-31 renal
HCT-15 colon = tested on: HCT-15 colon
A498 renal = tested on: A498 renal
MDA-MB-435 = tested on: MDA-MB-435
MDA-N = tested on: MDA-N
T-47D breast = tested on: T-47D breast
MCF7 breast = tested on: MCF7 breast

| Structure (SMILES) | TGI (RPMI-8226 leukemia) [µM] | TGI (CCRF-CEM leukemia) [µM] | TGI (SK-OV-3 ovarian) [µM] | TGI (SF-295 CNS) [µM] | TGI (LOX IMVI melanoma) [µM] | TGI (NCI-H460 lung) [µM] | TGI (M14 melanoma) [µM] | TGI (EKVX NSCLC) [µM] | TGI (COLO 205 colon) [µM] | TGI (KM12 colon) [µM] | TGI (HT29 colon) [µM] | TGI (UO-31 renal) [µM] | TGI (HCT-15 colon) [µM] | TGI (A498 renal) [µM] | TGI (MDA-MB-435) [µM] | TGI (MDA-N) [µM] | TGI (T-47D breast) [µM] | TGI (MCF7 breast) [µM] |
| --- | --- | --- | --- | --- | --- | --- | --- | --- | --- | --- | --- | --- | --- | --- | --- | --- | --- | --- |
| Cc1ccccc1NC(=O)CC(=O)n1nc(-c2ccccc2)c(N=Nc2ccc([N+](=O)[O-])cc2)c1-c1ccccc1 | 69.4 | > 100 | 57.7 | 49.6 | 46.6 | > 100 | 33.3 | 88.1 | 30.5 | 61.5 | 24.5 | 34.8 |  |  |  |  |  |  |
| O=c1[nH]c(=S)c2[nH]c(=O)n(-c3ccccc3)c2[nH]1 |  |  |  | > 100 | > 100 | > 100 | > 100 | > 100 |  | > 100 | > 100 | > 100 | > 100 | > 100 | > 100 | > 100 |  |  |
| O=C(CSCC(=O)N/N=C/c1ccncc1)N/N=C/c1ccncc1 | > 100 | > 100 | > 100 | > 100 | > 100 | > 100 | > 100 | > 100 |  | > 100 | > 100 | > 100 | > 100 | > 100 | > 100 |  | > 100 | > 100 |
| CC1CC/C(=C\c2ccc(F)cc2)C2=C1C(c1ccc(F)cc1)n1c(s/c(=C\c3ccc(Cl)cc3)c1=O)=N2 (stereo unspecified) | > 100 | > 100 | > 100 |  | > 100 |  | > 100 | > 100 |  | > 100 | > 100 |  | > 100 | > 100 | > 100 | > 100 |  | > 100 |
| OCC1(CNc2cc(Cl)ncn2)CCC1 | > 100 | > 100 |  | > 100 | > 100 | > 100 |  | > 100 | > 100 | > 100 | > 100 | > 100 | > 100 | > 100 | > 100 | > 100 |  | > 100 |
| Cc1cccc2c(=O)c3c(O)cc4c(c3n(C)c12)C=CC(C)(C)O4 | 66.5 | > 100 | > 100 | > 100 | > 100 | > 100 | > 100 | > 100 | > 100 | > 100 | 36.8 |  | > 100 | > 100 | > 100 | > 100 |  | > 100 |
| O=Cc1ccc2[nH]c(=O)oc2c1 | > 100 | > 100 | > 100 | > 100 | > 100 | > 100 | > 100 | > 100 | > 100 | > 100 | > 100 | 82.7 | > 100 | > 100 | > 100 | > 100 |  | > 100 |
| COC1=CC(=O)C2C(C1=O)[C@@H]1c3ccccc3OC[C@H]21 (stereo partly specified) | > 100 | > 100 | > 100 | > 100 | > 100 | > 100 | > 100 | > 100 | > 100 | > 100 | > 100 | > 100 |  | > 100 |  |  |  |  |
| COC(=O)/C=C/N1CC1 | > 10 | > 10 | > 10 | > 10 |  | > 10 | > 10 | > 10 | 9.07 | > 10 | > 10 |  | > 10 |  | > 10 |  | > 10 | > 10 |
| CC(C)[Si](OC1=CCC[C@H]2NC(=O)[C@@H](Cc3ccc([N+](=O)[O-])cc3)[C@@]12C)(C(C)C)C(C)C |  | 8.19 | 21.7 | 16.9 | 15.8 | 10.5 | 26.2 | 18.7 | 17 | 13.1 | 5.13 | 26.4 | 15.6 |  |  | 18 | 18.4 | 10.7 |
| CC(=O)Oc1cc2c(n(C)c1=O)CCC2 |  | > 100 | > 100 | > 100 | > 100 | > 100 | > 100 | > 100 | > 100 | > 100 | > 100 | > 100 | > 100 | > 100 | > 100 |  |  | > 100 |
| Cc1cc2nc3c(C#N)c4c(c(Nc5ccc(Cl)cc5)n3c2cc1C)CCC4 | 32.7 |  | > 100 | > 100 | 32.8 |  |  | > 100 | 59.1 | > 100 | 32 |  | 36.7 | > 100 | > 100 |  | 86.3 |  |
| N#C/C=C\c1ccc(-c2cc(C(F)(F)F)cc(C(F)(F)F)c2)o1 | > 100 | > 100 | > 100 | 46 | > 100 | > 100 | > 100 | > 100 | > 100 | > 100 | > 100 | > 100 |  | 61.3 | 18.5 | 71.6 |  | > 100 |
| Cc1ccc(C(=O)C(C)N)cc1C (stereo unspecified) | > 100 | > 100 | > 100 | > 100 | > 100 | > 100 | > 100 | > 100 | > 100 | > 100 | > 100 | > 100 |  | > 100 |  |  |  |  |
| NC(=O)N/N=C/c1ccccc1O | > 100 | > 100 | > 100 | > 100 | > 100 | > 100 | > 100 | > 100 | > 100 | > 100 | > 100 | > 100 | > 100 | > 100 | > 100 |  | > 100 | > 100 |
| C#CC1(O)CC(c2ccccc2)N(C)C(c2ccccc2)C1 (stereo unspecified) |  | > 100 | > 100 | > 100 | > 100 | > 100 | > 100 | > 100 | > 100 | > 100 | > 100 | > 100 | > 100 | > 100 |  |  |  |  |
| Cc1nc2c(s/c(=N\N)n2-c2ccccc2)c(=O)n1C | > 100 | > 100 | > 100 | > 100 | > 100 | > 100 | > 100 | > 100 | > 100 | > 100 | > 100 | > 100 | > 100 | > 100 |  |  |  |  |
| O=c1[nH]c(Br)nc2c(N3CCCCC3)c[nH]c12 | > 100 | > 100 | > 100 | > 100 | > 100 | > 100 | > 100 | > 100 | > 100 | > 100 | > 100 | > 100 | > 100 | > 100 |  |  |  |  |
| Cn1c2c(c3c(=O)[nH]ncc31)CCCc1ccccc1-2 | 40.2 | > 100 | 64 | > 100 | 46.1 | 67.7 | > 100 | > 100 | 34.5 | > 100 | > 100 | 53.1 | > 100 | 57.3 | 50.4 |  | > 100 | 53 |
| COc1cc(OC)cc(Oc2nc3c(N)cc(C(F)(F)F)cc3nc2-c2ccccc2)c1 | 77.7 | > 100 | > 100 | > 100 | 45.9 | > 100 | > 100 | > 100 | 64.3 | 50.3 | > 100 | > 100 | 55.9 | > 100 | 66.5 |  | 8.91 | 99 |
| CCCCn1c2c(n(CCCC)c1=[Se])-c1c(n(CCCC)c(=[Se])n1CCCC)S[Se][Se]S2 | > 70 | 55.6 | 58 | 30.9 | 30.1 | 29 | > 59.9 | > 100 | 39.4 | > 59.3 | > 64.6 | > 44.2 | 27.9 | > 100 | > 100 | > 100 |  | > 69 |
| CCCC(=O)Oc1cc(OC(=O)CCC)c2c(C)cc(=O)oc2c1 | > 100 | > 100 | > 100 | > 100 | > 100 |  | > 100 | > 100 | > 100 | > 100 | > 100 | > 100 | > 100 | > 100 | > 100 | > 100 |  | > 100 |
| Nc1nc2c(ncn2CC(CO)CC(c2ccccc2)P(=O)(O)O)c(=O)[nH]1 (stereo unspecified) | > 100 | > 100 | > 100 | > 100 | > 100 | > 100 | > 100 | > 100 | > 100 | > 100 | > 100 | > 100 | > 100 | > 100 |  |  |  |  |
| CCOC(=O)C1C(=O)c2cccc(OC)c2C2COC(=O)N12 (stereo unspecified) | > 100 | > 100 | > 100 | > 100 | > 100 | > 100 | > 100 | > 100 | > 100 | > 100 | > 100 | > 100 | > 100 |  |  |  |  |  |
